Results on 3 compounds are retold here after publication PMC9977398, “Next-generation membrane-active glycopeptide antibiotics that also inhibit bacterial cell division” (Chemical Science, 2023).

The series deals with MRSA. As to the kind of experiment: Membrane permeabilization assay, propidium iodide uptake. In kind it is cell-based, S. aureus. The method, then: The kinetics of permeabilization of membranes of MRSA and B. subtilis by the compounds was measured by the uptake of propidium iodide (PI). […] When the membrane integrity is compromised, it enters the cell and fluoresces upon binding to the DNA. Both VanQbiph (4) and VanQAmC10 (8) permeabilized the membrane in a concentration-dependent manner (Fig. S2 ^†). […] They caused gradual permeabilization against the stationary phase cells of MRSA as well (Fig. 2F). The extent of permeabilization was higher for VanQAmC10 (8) than VanQbiph (4) against both the log-phase and stationary-phase bacteria similar to that observed during depolarisation.
50 μL of serially diluted compound was added into 96 well microtiter plates. Freshly drawn, heparanized human blood was centrifuged down to obtain the erythrocytes and re-suspended to 5 vol % in PBS (pH 7.4). 150 μL of the erythrocyte suspension was added to the serially diluted compounds (from 500 µM to 2 µM). One set without compound and other with 50 μL of 1 vol % solution of Triton X-100 were kept as controls. […] 100 μL of the supernatant from each well were transferred into fresh microtiter plates, and A540 was measured.
% haemolysis = (A - A0)/(Atotal -A0) × 100, where A is the absorbance of the test well, A 0 the absorbance of the negative controls (without compound), and A total the absorbance of 100 % hemolysis wells (with Triton X -100), all at 540 nm. […]
2 h post incubation with dye, the absorbance was measured at 570 nm using 600 nm as […]
The bactericidal activity of the compounds was evaluated with the time kill kinetics assay.
MRSA ATCC 33591 cells were cultured in nutrient media at 37°C for 6 h. […] The bacterial colonies were counted and results are represented in logarithmic scale, i.e. log10 (CFU/mL). […]
were added to it the wells containing bacterial suspension. Fluorescence has monitored at excitation wavelength of 535 nm (slit width: 10 nm) and emission wavelength of 617 nm (slit width: 5 nm). As a measure of inner membrane permeabilization the uptake of PI was monitor by the increase in fluorescence for 30-50 min. […]

On to `CN[C@H](CC(C)C)C(=O)N[C@H]1C(=O)N[C@@H](CC(N)=O)C(=O)N[C@H]2C(=O)N[C@H]3C(=O)N[C@H](C(=O)N[C@H](C(=O)O)c4cc(O)cc(O)c4-c4cc3ccc4O)[C@H](O)c3ccc(c(Cl)c3)Oc3cc2cc(c3O[C@@H]2O[C@H](CO)[C@@H](O)[C@H](O)[C@H]2O[C@H]2C[C@](C)(N)[C@H](O)[C@H](C)O2)Oc2ccc(cc2Cl)[C@H]1O` [Vancomycin, reference compound], for which the “effect on membrane integrity (PI uptake)” value is recorded as “does not affect the membrane integrity”.
As to `CNC(CC(C)C)C(=O)NC1C(=O)NC(CC(N)=O)C(=O)NC2C(=O)NC3C(=O)NC(C(=O)NC(C(=O)NCCC[N+](C)(C)Cc4ccc(-c5ccccc5)cc4)c4cc(O)cc(O)c4-c4cc3ccc4O)C(O)c3ccc(c(Cl)c3)Oc3cc2cc(c3OC2OC(CO)C(O)C(O)C2OC2CC(C)(N)C(O)C(C)O2)Oc2ccc(cc2Cl)C1O` (stereo not drawn) [VanQbiph (4)], the “effect on membrane integrity (PI uptake)” value was “slower permeabilization”.
As to `CCCCCCCCCCNC(=O)C[N+](C)(C)CCCNC(=O)C1NC(=O)C2NC(=O)C(NC(=O)C3NC(=O)C(CC(N)=O)NC(=O)C(NC(=O)C(CC(C)C)NC)C(O)c4ccc(c(Cl)c4)Oc4cc3cc(c4OC3OC(CO)C(O)C(O)C3OC3CC(C)(N)C(O)C(C)O3)Oc3ccc(cc3Cl)C2O)c2ccc(O)c(c2)-c2c(O)cc(O)cc21` (stereo not drawn) [VanQAmC10 (8)], the “time to membrane permeabilization” value (exponentially growing MRSA, 10 μM, PI uptake) is at most 4 min.
